What was measured:
[1] = target: T1, SIK3 (Homo sapiens, UniProt Q9Y2K2); experiment: biochemical
T1 construct: purchased SignalChem S12-11G-100
In short: (§1)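 Read-out: ^33P incorporated into AMARA peptide, counted on filter plates, taken as kinase activity. Reactions start on addition of labeled/unlabeled ATP to enzyme plus substrate and end with phosphoric acid. Controls: 1% DMSO (negative) and 10 μM staurosporine (positive), final.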

[2] = target: T2, SIK2 (Homo sapiens, UniProt Q9H0K1); experiment: biochemical; settings: 33P radioactive SIK kinase assay, AMARA peptide, 10 μM ATP
T2 construct: purchased ThermoFisher Scientific PV4792
T2 sequence (Q9H0K1 whole entry): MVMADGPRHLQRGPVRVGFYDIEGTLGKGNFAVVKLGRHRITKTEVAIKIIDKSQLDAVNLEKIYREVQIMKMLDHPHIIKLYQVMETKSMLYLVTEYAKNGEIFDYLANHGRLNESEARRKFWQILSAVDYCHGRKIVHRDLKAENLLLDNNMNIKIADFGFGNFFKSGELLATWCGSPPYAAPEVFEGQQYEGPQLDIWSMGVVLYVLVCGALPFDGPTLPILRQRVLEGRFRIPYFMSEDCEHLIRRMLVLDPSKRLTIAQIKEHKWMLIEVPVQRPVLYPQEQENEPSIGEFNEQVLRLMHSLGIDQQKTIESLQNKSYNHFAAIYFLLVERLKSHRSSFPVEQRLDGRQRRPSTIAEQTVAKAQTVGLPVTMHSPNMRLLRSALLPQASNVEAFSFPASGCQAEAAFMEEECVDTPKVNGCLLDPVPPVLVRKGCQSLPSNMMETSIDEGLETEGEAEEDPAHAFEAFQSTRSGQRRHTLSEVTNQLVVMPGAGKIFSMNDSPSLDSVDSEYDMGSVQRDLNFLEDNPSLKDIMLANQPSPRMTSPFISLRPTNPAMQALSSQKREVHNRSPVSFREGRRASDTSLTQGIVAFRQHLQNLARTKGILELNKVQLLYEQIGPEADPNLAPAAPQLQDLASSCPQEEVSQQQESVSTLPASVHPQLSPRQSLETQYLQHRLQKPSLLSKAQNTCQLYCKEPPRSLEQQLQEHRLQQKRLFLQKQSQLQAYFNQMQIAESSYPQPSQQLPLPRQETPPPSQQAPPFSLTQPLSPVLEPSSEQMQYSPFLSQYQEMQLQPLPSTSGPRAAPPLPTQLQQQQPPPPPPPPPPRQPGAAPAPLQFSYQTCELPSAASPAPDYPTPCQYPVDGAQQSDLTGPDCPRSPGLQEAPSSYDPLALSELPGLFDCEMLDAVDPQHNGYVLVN
In short: as §1

[3] = target: T3, SIK1 (Homo sapiens, UniProt P57059); experiment: biochemical; settings: 33P radioactive SIK kinase assay, AMARA peptide, 10 μM ATP; read-out: SIK1 IC50
T3 construct: purchased Carna Biosciences 02-131
T3 sequence (P57059 whole entry): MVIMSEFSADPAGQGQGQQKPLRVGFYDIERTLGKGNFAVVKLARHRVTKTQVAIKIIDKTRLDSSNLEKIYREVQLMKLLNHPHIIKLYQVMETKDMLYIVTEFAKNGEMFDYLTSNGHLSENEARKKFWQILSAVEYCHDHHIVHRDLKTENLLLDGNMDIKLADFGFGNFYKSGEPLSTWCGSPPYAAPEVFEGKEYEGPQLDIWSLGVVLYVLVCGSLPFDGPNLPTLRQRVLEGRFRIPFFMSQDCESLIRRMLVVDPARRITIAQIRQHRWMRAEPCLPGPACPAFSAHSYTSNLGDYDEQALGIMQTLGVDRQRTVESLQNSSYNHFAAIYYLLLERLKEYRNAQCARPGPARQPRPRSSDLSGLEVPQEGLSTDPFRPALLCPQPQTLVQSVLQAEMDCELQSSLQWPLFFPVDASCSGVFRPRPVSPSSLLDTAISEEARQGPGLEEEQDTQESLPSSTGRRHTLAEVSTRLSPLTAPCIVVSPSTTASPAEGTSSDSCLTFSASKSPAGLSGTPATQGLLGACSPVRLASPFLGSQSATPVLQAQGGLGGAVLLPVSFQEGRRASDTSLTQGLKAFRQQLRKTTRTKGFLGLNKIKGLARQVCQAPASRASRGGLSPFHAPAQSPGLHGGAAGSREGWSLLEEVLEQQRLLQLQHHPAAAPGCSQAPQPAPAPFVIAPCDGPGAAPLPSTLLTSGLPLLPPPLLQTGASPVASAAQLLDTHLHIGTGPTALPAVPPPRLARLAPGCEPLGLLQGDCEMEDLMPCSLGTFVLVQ
In short: as §1

[4] = tested on: LPS-induced TNFα secretion in monocyte-derived macrophages (MdM); experiment: MdM assay: LPS-triggered TNFα (ELISA); assay type: cell-based, human; settings: Homo sapiens, Macrophage, LPS-triggered TNFα inhibition
Method: This assay evaluates illustrative compounds of the invention for their inhibition of LPS-induced TNFα and LPS triggered IL-10 secretion in monocyte-derived macrophages.
PBMCs are isolated from human blood samples (buffycoats). The buffy coat is aseptically transferred into a 50 mL Falcon tube, and diluted 1/2 in PBS. Falcon tubes are filled with 20 mL Lymphoprep™, on top of which 25 mL of the buffy coat is carefully added, tubes are centrifuged for 35 min at 400 g in temperature controlled centrifuge, without brake, at 25° C. PBMCs are aspirated from the white interface layer between sample and Lymphoprep™. PBMCs are washed five times in PBS.
PBMCs are centrifuged at 300×g for 10 min and resuspended at a density of 1.0E07 cells/80 μL Miltenyi buffer (PBS, pH 7.4, 1% FBS, 2 mM EDTA).
Starting from this point of the protocol all steps are performed on ice. 20 μL of CD14+ micro-beads are added per 1.0E07 cells, the tube is mixed and incubated for 15 min in the fridge at 4° C. Cell suspension volume is adjusted to total volume of 100 mL using Miltenyi buffer, mixed gently and subsequently centrifuged for 10 min at 300× g. Supernantant is discarded and cell pellet is resuspended in 12 mL of Miltenyi buffer.
Four LS columns are placed in the MACS Separator (magnet) from Miltenyi Biotec, and are prewet by rinsing with 3 mL of MACS buffer per column. Three mL of cell suspension is added onto the column (max 1*10^8 of labelled cells/column), and columns are subsequently washed 3 times with 3 mL of Miltenyi buffer.
The columns are removed from the magnets, and 5 mL of Miltenyi buffer are added to the column to flush out the CD14+ fraction by pushing the plunger into the column. The flushed fractions are collected in a fresh 50 mL Falcon and volume is adjusted to 30 mL using Miltenyi buffer, cells are centrifuged for 10 min at 300× g. The obtained cell pellet is resuspended in 10 mL RPMI w/o FBS, and cell density is determined using a hematologic analyser (Sysmex XS-500i).
On day 10, MdMs are triggered and compound is added.
A compound dilution plate is made in 100% DMSO by 3-fold dilution of 10 mM stock solution. An intermediate dilution plate (10× final concentration) is made by diluting the compound dilution plate 50-fold in RPMI medium.
Medium is carefully removed from cell plates using multichannel pipette, and replaced by 80 μL fresh medium. 10 μL of the 10× final concentration compound is added to the cells and incubated for 1 hour at 37° C. before addition of trigger. No trigger conditions/trigger conditions are spiked with equal final DMSO concentrations of 0.2% DMSO. 10 μL of 10×LPS (final conc. 200 ng/mL) solution are added to all wells except for the ‘no trigger wells’ where 10 μL medium is added. Supernatant is collected after 2 h (IL-10 determination) and after 20 h (TNFα determination) of LPS triggering.
The plate is then washed once with PBST (PBS+0.05% Tween20) and once with PBS followed by the addition of 100 μL of blocking buffer (1% Bovine Serum Albumin (BSA)-5% Sucrose) and plates are sealed and incubated for at least 4 h at RT. After washing the plate once with PBST and once with PBS, 40 μL of standard or sample are added (TNFα standard curve is prepared using a 1/2 serial dilution starting from 16000 pg/mL; dilutions are made in dilution buffer (PBS+1% BSA)). Plates are washed twice with PBST, and once with PBS, after which 35 μL of the detection antibody is added (final concentration 0.25 μg/mL diluted in dilution buffer) and plates are incubated for at least 2 h at RT. Plates are washed twice with PBST, and once with PBS, where after 35 μL of Strep-HRP conjugate (0.5 μg/mL final concentration diluted in dilution buffer) is added. Plates are incubated in the dark, at RT for at least 45 min but no longer than 1 hour. Plates are washed twice with PBST, and once with PBS.

T1 sequence (Q9Y2K2 whole entry): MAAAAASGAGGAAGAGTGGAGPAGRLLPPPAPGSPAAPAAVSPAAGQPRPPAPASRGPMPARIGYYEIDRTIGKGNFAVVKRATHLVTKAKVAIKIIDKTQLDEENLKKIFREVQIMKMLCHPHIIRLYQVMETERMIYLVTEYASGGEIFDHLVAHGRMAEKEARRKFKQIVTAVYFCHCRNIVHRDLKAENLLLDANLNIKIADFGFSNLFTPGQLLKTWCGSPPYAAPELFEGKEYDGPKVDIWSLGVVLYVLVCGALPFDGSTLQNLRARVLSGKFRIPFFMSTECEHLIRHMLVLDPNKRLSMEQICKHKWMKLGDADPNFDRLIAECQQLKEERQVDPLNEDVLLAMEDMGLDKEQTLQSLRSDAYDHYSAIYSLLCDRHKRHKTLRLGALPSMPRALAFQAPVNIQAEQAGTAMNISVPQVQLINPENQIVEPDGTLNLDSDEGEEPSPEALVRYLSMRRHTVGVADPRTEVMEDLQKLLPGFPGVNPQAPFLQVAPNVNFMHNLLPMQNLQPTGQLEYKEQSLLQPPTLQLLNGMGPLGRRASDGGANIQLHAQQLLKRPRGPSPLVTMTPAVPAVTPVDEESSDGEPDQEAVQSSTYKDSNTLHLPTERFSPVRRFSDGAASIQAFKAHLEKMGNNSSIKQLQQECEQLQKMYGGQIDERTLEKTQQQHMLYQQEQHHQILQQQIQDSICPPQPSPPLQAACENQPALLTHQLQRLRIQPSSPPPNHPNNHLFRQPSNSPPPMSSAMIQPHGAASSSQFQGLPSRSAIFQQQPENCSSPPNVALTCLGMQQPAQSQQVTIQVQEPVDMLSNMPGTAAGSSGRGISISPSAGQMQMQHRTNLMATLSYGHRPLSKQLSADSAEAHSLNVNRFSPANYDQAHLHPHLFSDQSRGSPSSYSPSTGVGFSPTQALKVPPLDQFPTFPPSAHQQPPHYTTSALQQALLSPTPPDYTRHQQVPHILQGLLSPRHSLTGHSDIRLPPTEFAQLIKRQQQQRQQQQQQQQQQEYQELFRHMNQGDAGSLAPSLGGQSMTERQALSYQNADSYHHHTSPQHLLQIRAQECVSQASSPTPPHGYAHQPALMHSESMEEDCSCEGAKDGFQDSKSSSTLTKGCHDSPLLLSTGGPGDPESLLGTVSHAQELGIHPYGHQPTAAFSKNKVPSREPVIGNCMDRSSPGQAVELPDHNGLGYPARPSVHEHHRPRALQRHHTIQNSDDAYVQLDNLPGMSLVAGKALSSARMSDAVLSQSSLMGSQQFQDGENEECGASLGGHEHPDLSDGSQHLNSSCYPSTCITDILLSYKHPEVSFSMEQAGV

Row | Structure (SMILES) | IC50 [1] | IC50 [2] | IC50 [3] | EC50 [4]
1 | COc1cc(-c2cnc3cc(-c4cnn(CC(=O)OC5CCOC5)c4)ccn23)cc(OC)c1C(=O)NCC(F)(F)F (stereo not drawn) [Cpd 237, tetrahydrofuran-3-yl 2-[4-[3-[3,5-dimethoxy-4-(2,2,2-trifluoroethyl-carbamoyl)phenyl]imidazo[1,2-a]pyridin-7-yl]pyrazol-1-yl]acetate] | 0.01 to 10 nM | 0.01 to 10 nM | 0.01 to 10 nM | 100 to 1000 nM
2 | COc1cc(-c2cnc3cc(-c4cnn(CC(=O)OCC5CCC5)c4)ccn23)cc(OC)c1C(=O)NCC(F)(F)F [Cpd 238, cyclobutylmethyl 2-[4-[3-[3,5-dimethoxy-4-(2,2,2-trifluoroethyl-carbamoyl)phenyl]imidazo[1,2-a]pyridin-7-yl]pyrazol-1-yl]acetate] | 0.01 to 10 nM | 0.01 to 10 nM | 0.01 to 10 nM | 0.1 to 100 nM
3 | COc1cc(-c2cnc3cc(-c4cnn(C(C)C(=O)O)c4)ccn23)cc(OC)c1C(=O)NCC(F)(F)F (stereo not drawn) [Cpd 254, 2-[4-[3-[3,5-dimethoxy-4-(2,2,2-trifluoroethyl-carbamoyl)phenyl]imidazo[1,2-a]pyridin-7-yl]pyrazol-1-yl]propanoic acid] | 0.01 to 10 nM | 0.01 to 10 nM | 0.01 to 10 nM | > 5000 nM
4 | COc1cc(-c2cnc3cc(-c4cnn(CCCC(=O)O)c4)ccn23)cc(OC)c1C(=O)NCC(F)(F)F [Cpd 255, 4-[4-[3-[3,5-dimethoxy-4-(2,2,2-trifluoroethyl-carbamoyl)phenyl]imidazo[1,2-a]pyridin-7-yl]pyrazol-1-yl]butanoic acid] | 0.01 to 10 nM | 0.01 to 10 nM | 0.01 to 10 nM | 1000 to 5000 nM
5 | CCNC(=O)c1c(OC)cc(-n2cnc3cc(-c4cccnc4)ccc32)cc1OC [compound 2, N-ethyl-2,6-dimethoxy-4-[5-(3-pyridyl)benzimidazol-1-yl]benzamide] | 10 to 100 nM | 100 to 500 nM | 100 to 500 nM | 1000 to 5000 nM
6 | CCn1cc(-c2cnc3c(-c4cc(OC)c(C(=O)NCC(F)F)c(OC)c4)cnn3c2)cn1 [compound 21, N-(2,2-difluoroethyl)-4-[6-(1-ethylpyrazol-4-yl)pyrazolo[1,5-a]pyrimidin-3-yl]-2,6-dimethoxy-benzamide] | 0.01 to 10 nM | 0.01 to 10 nM | 10 to 100 nM | 100 to 1000 nM
7 | CCn1cc(-c2ccc3c(c2)ncn3-c2cc(OC)c(C(=O)NC3CCC3)c(OC)c2)cn1 [compound 26, N-cyclobutyl-4-[5-(1-ethylpyrazol-4-yl)benzimidazol-1-yl]-2,6-dimethoxy-benzamide] | 10 to 100 nM | 10 to 100 nM | 10 to 100 nM | 100 to 1000 nM
8 | COc1cc(-n2cnc3cc(-c4ccc(N5CCOCC5)nc4)ccc32)cc(OC)c1C(=O)NCC(F)(F)F [compound 32, 2,6-dimethoxy-4-[5-(6-morpholino-3-pyridyl)benzimidazol-1-yl]-N-(2,2,2-trifluoroethyl)benzamide] | 10 to 100 nM | 10 to 100 nM | 10 to 100 nM | 100 to 1000 nM
9 | COc1cc(-n2cnc3cc(-c4ccc(N5CCCC5)nc4)ccc32)cc(OC)c1C(=O)NCC(F)(F)F [compound 34, 2,6-dimethoxy-4-[5-(6-pyrrolidin-1-yl-3-pyridyl)benzimidazol-1-yl]-N-(2,2,2-trifluoroethyl)benzamide] | 10 to 100 nM | 0.01 to 10 nM | 10 to 100 nM | 100 to 1000 nM
10 | COc1cc(-n2cnc3cc(-c4cnn(C5CCNCC5)c4)ccc32)cc(OC)c1C(=O)NCC(F)(F)F [compound 42, 2,6-dimethoxy-4-[5-[1-(4-piperidyl)pyrazol-4-yl]benzimidazol-1-yl]-N-(2,2,2-trifluoroethyl)benzamide] | 0.01 to 10 nM | 0.01 to 10 nM | 0.01 to 10 nM | 100 to 1000 nM
11 | CCn1cc(-c2ccc3c(c2)ncn3-c2cc(OC)c(C(=O)NCCC(F)(F)F)c(OC)c2)cn1 [compound 44, 4-[5-(1-ethylpyrazol-4-yl)benzimidazol-1-yl]-2,6-dimethoxy-N-(3,3,3-trifluoropropyl)benzamide] | 10 to 100 nM | 10 to 100 nM | 10 to 100 nM | 100 to 1000 nM
12 | COc1cc(-n2cnc3cc(-c4cnn(C)c4)ccc32)cc(OC)c1C(=O)N[C@H](C)C(F)(F)F [compound 58, 2,6-dimethoxy-4-[5-(1-methylpyrazol-4-yl)benzimidazol-1-yl]-N-[(1R)-2,2,2-trifluoro-1-methyl-ethyl]benzamide] | 10 to 100 nM | 10 to 100 nM | 10 to 100 nM | 100 to 1000 nM
13 | COc1cc(-n2cnc3cc(-c4cnn(C)c4)ccc32)cc(OC)c1C(=O)NC1CC(F)(F)C1 [compound 125, N-(3,3-difluorocyclobutyl)-2,6-dimethoxy-4-[5-(1-methylpyrazol-4-yl)benzimidazol-1-yl]benzamide] | 10 to 100 nM | 10 to 100 nM | 10 to 100 nM | 100 to 1000 nM
14 | COc1cc(-c2cnc3cc(-c4cnn(C)c4)ccn23)cc(OC)c1C(=O)NCC(C)C [compound 129, N-isobutyl-2,6-dimethoxy-4-[7-(1-methylpvrazol-4-yl)imidazo[1,2-a]pyridin-3-yl]benzamide] | 0.01 to 10 nM | 0.01 to 10 nM | 10 to 100 nM | 100 to 1000 nM
15 | CCNC(=O)c1c(OC)cc(-c2cnc3cc(-c4ccnnc4)ccn23)cc1OC(F)F [compound 145, 2-(difluoromethoxy)-N-ethyl-6-methoxy-4-(7-pyridazin-4-ylimidazo[1,2-a]pyridin-3-yl)benzamide] | 10 to 100 nM | 10 to 100 nM | 10 to 100 nM | 1000 to 5000 nM
16 | CCNC(=O)c1c(OC)cc(-c2cnc3cc(-c4ccc(C#N)nc4)ccn23)cc1OC(F)F [compound 146, 4-[7-(6-cyano-3-pyridyl)imidazo[1,2-a]pyridin-3-yl]-2-(difluoromethoxy)-N-ethyl-6-methoxy-benzamide] | 10 to 100 nM | 10 to 100 nM | 100 to 500 nM | 100 to 1000 nM
17 | CCNC(=O)c1c(OC)cc(-c2cnc3cc(-c4cnn(C5CCN(C(=O)OC(C)(C)C)CC5)c4)ccn23)cc1OC(F)F [compound 147, tert-butyl 4-[4-[3-[3-(difluoromethoxy)-4-(ethylcarbamoyl)-5-methoxy-phenyl]imidazo[1,2-a]pyridin-7-yl]pyrazol-1-yl]piperidine-1-carboxylate] | 0.01 to 10 nM | 0.01 to 10 nM | 0.01 to 10 nM | 0.1 to 100 nM
18 | CCNC(=O)c1c(OC)cc(-c2cnc3cc(-c4cnn(C5CCNCC5)c4)ccn23)cc1OC(F)F [compound 149, 2-(difluoromethoxy)-N-ethyl-6-methoxy-4-[7-[1-(4-piperidyl)pyrazol-4-yl]imidazo[1,2-a]pyridin-3-yl]benzamide] | 0.01 to 10 nM | 0.01 to 10 nM | 0.01 to 10 nM | 100 to 1000 nM

Reference: US12065443B2, “Compounds and pharmaceutical compositions thereof for the treatment of diseases” (priority 2017, dated 2024)
